Assay results published in publication PMC3964211, “Pharmacokinetic modeling optimizes inhibition of the ‘undruggable’ EWS-FLI1 transcription factor in Ewing Sarcoma” (Oncotarget, 2013).

Experiments:
[1] = Pharmacokinetics in SD rats, single IV injection; format: in vivo, Sprague-Dawly (SD) rats; settings: for AUClast / AUC∞ / Clearance / Observed Cmax / Terminal Elimination Half-Life: analyte (S)-YK-4-279 in plasma
Experimental: (§1) To optimize dosing in animals, we determined the pharmacokinetics of YK-4-279 and its single enantiomers in Sprague-Dawly (SD) rats. Three rats of each gender were assigned to nine dose groups. Animals in Groups 1 through 3 received a single intravenous (IV) injection of racemic mixture, (S)-YK-4-279, or (R)-YK-4-279 at a dose of 25 mg/kg. Animals in Groups 4 through 9 received a single oral gavage administration of racemic mixture, (S)-YK-4-279, or (R)-YK-4-279 at a dosage level of 25 or 50 mg/kg. […] However, given that approximately 50 percent of the racemic mixture is (S)-YK-4-279 and the clearance […] the dose, the IV clearance of (S)-YK-4-279 is considered to be similar whether a racemic mixture or only (S)-YK-4-279 is administered. Systemic exposure to (S)-YK-4-279 was evaluated using Cmax and AUC values. Cmax and AUC8 values were similar between males and females for a given dose group. With an expected enantiomer ratio of 1:1 in the racemic dose, Group 2 animals would have received a 2-fold higher dose of (S)-YK-4-279 than Group 1 animals. […] Absolute bioavailability of (S)-YK-4-279 following gavage administration, using cremophor/ethanol as an excipient, in SD rats was only 2–6% (Table 2).
(§2) Nine SD rats of each gender were assigned to nine dose groups. Groups 1 through 3 received a single IV injection of racemic mixture, (S)-YK-4-279, or (R)-YK-4-279 at a dose of 25 mg/kg. Groups 4 through 9 received a single gavage administration of racemic mixture, (S)-YK-4-279, or (R)-YK-4-279 at a dosage level of 25 or 50 mg/kg. Blood samples were collected from one animal per group per time point at target time points of pre-dose, 5, 15, 30 and 60 minutes, and 2, 4, 8 and 12 hours following dosing. Plasma was obtained from the samples and analyzed for (S) and (R)-YK-4-279 concentrations.
(§3) The plasma and tumor sample analysis was performed using calibration standards and Quality Control (QC) samples prepared in control rat or mouse plasma and tumor tissues. Plasma and tumor calibration standards were prepared from stock solutions of YK-4-279. The calibration standards, blanks, QC samples, and study samples were then processed by solid-liquid extraction (SLE) followed by analysis using liquid chromatography with mass spectrometry (LC-MS). The LC-MS systems used for the analysis of YK-4-279 was composed of Shimadzo prominence pump and auto-sampler (Kyoto, Japan), a Sciex API 5000 MS (Toronto, Ontario), with turbo ion spary in the positive ion mode. The samples for the analysis of total YK-4-279 were injected into a 50 × 2 mm Gemini- NX, 5 ¼m column (Phenomenex, Torrance, CA). The samples for the analysis of the specific enantiomers of YK-4-279 were injected into a 150 × 2 mm Lux Cellulose-2, 3 ¼m Phenomenex column. The transitions monitored were 366 amu to 135 amu for YK-4-279 and 369 amu to 138 amu for the YK-4-279-d3 internal standard. YK-4-279 concentrations were calculated using peak area response ratios and a regression equation constructed from the concentrations and peak area response ratios of the calibration standards. The lower limit of quantitation was 5.0 ng/mL in plasma and […] in tumor tissue. The concentration-time profiles were evaluated by compartmental modeling and non-compartmental analysis using WinNonlin (Pharsight Corporation, Mountain View, CA). The PK parameters obtained from the compartmental modeling were used in simulations to identify optimal dose level and dosing schedule for maintaining plasma concentration of (S)-YK-4-279 above 3 ¼M.

[2] = Pharmacokinetics in SD rats, single oral gavage; format: in vivo, Sprague-Dawly (SD) rats; settings: analyte (S)-YK-4-279 in plasma
Experimental: as §1, §2, §3

[3] = SD rats, female (n=9), single IV injection 25 mg/kg
[4] = SD rats, male (n=9), single IV injection 25 mg/kg
[5] = female (n=9), oral gavage 25 mg/kg
[6] = female (n=9), oral gavage 50 mg/kg
[7] = male (n=9), oral gavage 25 mg/kg
[8] = male (n=9), oral gavage 50 mg/kg
[9] = SD rats, single IV injection 25 mg/kg, average of males and females, analyte (S)-YK-4-279

SMILES | AUClast [1, 3] | AUC∞ [1, 3] | Clearance [1, 3] | Observed Cmax [1, 3] | Terminal Elimination Half-Life [1, 3] | AUClast [1, 4] | AUC∞ [1, 4] | Clearance [1, 4] | Observed Cmax [1, 4] | Terminal Elimination Half-Life [1, 4] | AUClast [2, 5] | AUC∞ [2, 5] | Absolute Bioavailability [2, 5] | Apparent Clearance [2, 5] | Observed Cmax [2, 5] | Observed Tmax [2, 5] | Terminal Elimination Half-Life [2, 5] | AUClast [2, 6] | AUC∞ [2, 6] | Absolute Bioavailability [2, 6] | also measured
COc1ccc(C(=O)C[C@]2(O)C(=O)Nc3c(Cl)ccc(Cl)c32)cc1 [(R)-YK-4-279] | BLOQ | BLOQ | BLOQ | BLOQ | BLOQ | BLOQ | BLOQ | BLOQ | BLOQ1 | BLOQ | BLOQ | BLOQ | BLOQ | BLOQ | BLOQ | BLOQ | BLOQ | BLOQ | BLOQ | BLOQ | Clearance slower than the clearance of (S)-YK-4-279 ([1]; SD rats (Supplemental table 1, not available)): approximately 25%; Apparent Clearance [2, 6]: BLOQ; Observed Cmax [2, 6]: BLOQ; Observed Tmax [2, 6]: BLOQ; Terminal Elimination Half-Life [2, 6]: BLOQ; AUClast [2, 7]: BLOQ; AUC∞ [2, 7]: BLOQ; Absolute Bioavailability [2, 7]: BLOQ; Apparent Clearance [2, 7]: BLOQ; Observed Cmax [2, 7]: BLOQ1; Observed Tmax [2, 7]: BLOQ; Terminal Elimination Half-Life [2, 7]: BLOQ; AUClast [2, 8]: BLOQ; AUC∞ [2, 8]: BLOQ; Absolute Bioavailability [2, 8]: BLOQ; Apparent Clearance [2, 8]: BLOQ; Observed Cmax [2, 8]: BLOQ; Observed Tmax [2, 8]: BLOQ; Terminal Elimination Half-Life [2, 8]: BLOQ
COc1ccc(C(=O)CC2(O)C(=O)Nc3c(Cl)ccc(Cl)c32)cc1 (stereo not shown) [YK-4-279] | 25.6 hr*¼M | 25.9 hr*¼M | 44 mL/min/kg | 37.1 ¼M | 0.602 h | 26.5 hr*¼M | 26.7 hr*¼M | 42.67 mL/min/kg | 39.9 ¼M | 0.564 h | 1.07 hr*¼M | 1.31 hr*¼M | 5.06% | 52,200 mL/hr/kg | 0.513 ¼M | 0.500 h | 1.56 h | 3.09 hr*¼M | 3.14 hr*¼M | 6.07% | Average clearance [1, 9]: 43.33 mL/min/kg; Average elimination half-life [1, 9]: 0.583 h; Apparent Clearance [2, 6]: 43,400 mL/hr/kg; Observed Cmax [2, 6]: 0.647 ¼M; Observed Tmax [2, 6]: 0.500 h; Terminal Elimination Half-Life [2, 6]: 1.97 h; AUClast [2, 7]: 0.563 hr*¼M; AUC∞ [2, 7]: 0.754 hr*¼M; Absolute Bioavailability [2, 7]: 2.83%; Apparent Clearance [2, 7]: 90,300 mL/hr/kg; Observed Cmax [2, 7]: 0.142 ¼M; Observed Tmax [2, 7]: 1.00 h; Terminal Elimination Half-Life [2, 7]: 3.84 h; AUClast [2, 8]: 1.04 hr*¼M; AUC∞ [2, 8]: 1.18 hr*¼M; Absolute Bioavailability [2, 8]: 2.21%; Apparent Clearance [2, 8]: 116,000 mL/hr/kg; Observed Cmax [2, 8]: 0.241 ¼M; Observed Tmax [2, 8]: 2.00 h; Terminal Elimination Half-Life [2, 8]: 4.23 h
